Holding throughout (format): functional, Homo sapiens
One assay deals with A549. In words: Concentration required for 50% inhibition of proliferation of lung cancer cell line, A549 with respect to paclitaxel was tested in vitro after 72 hr of incubation.
The next assay deals with MCF7. The experiment in a line: Concentration required for 50% inhibition of proliferation of breast cancer cell line, MCF-7 with respect to paclitaxel was tested in vitro after 72 hr of incubation.
The test system of the next assay is SK-OV-3. The experiment in a line: Concentration required for 50% inhibition of proliferation of ovarian cancer cell line, SKOV3 with respect to paclitexal was tested in vitro after 72 hr of incubation.

As for `CC(=O)O[C@H]1[C@@H]2[C@@H]3CN[C@@H]3CC[C@@]2(C)[C@@H](OC(C)=O)[C@H](OC(C)=O)C2=C(C)[C@@H](OC(=O)[C@H](O)[C@@H](NC(=O)c3ccccc3)c3ccccc3)C[C@@H]1C2(C)C`, the figures for the Ratio with A549, with MCF7 and in the assay with SK-OV-3 were 4.5, 4.9 and 4.6, respectively.
Take `CC(=O)O[C@H]1[C@@H]2[C@@H]3CN(C(=O)C(F)(F)F)[C@@H]3CC[C@@]2(C)[C@@H](OC(C)=O)[C@H](OC(C)=O)C2=C(C)[C@@H](OC(=O)[C@H](O)[C@@H](NC(=O)c3ccccc3)c3ccccc3)C[C@@H]1C2(C)C`: the Ratio stood at 3.2 with A549, 3.8 in the assay with MCF7 and 4.7 in the assay with SK-OV-3.
Taken in the same sequence, the figures for `CC(=O)O[C@H]1[C@@H]2[C@@H]3CN(C(C)=O)[C@@H]3CC[C@@]2(C)[C@@H](OC(C)=O)[C@H](OC(C)=O)C2=C(C)[C@@H](OC(=O)[C@H](O)[C@@H](NC(=O)c3ccccc3)c3ccccc3)C[C@@H]1C2(C)C` were 2.9, 3.6 and 5.8.
Taken in the same sequence, the figures for `COc1ccc(OC2O[C@@H](C(=O)O[C@H]3C[C@H]4[C@@H](OC(C)=O)[C@@H]5[C@@H]6CN[C@@H]6CC[C@@]5(C)[C@@H](OC(C)=O)[C@H](OC(C)=O)C(=C3C)C4(C)C)[C@H](c3ccccc3)N2C(=O)c2ccccc2)cc1` (stereo partly drawn) were 6.8, 8.6 and 9.3.
As for `COc1ccc(OC2O[C@@H](C(=O)O[C@H]3C[C@H]4[C@@H](OC(C)=O)[C@@H]5[C@@H]6CN(C(C)=O)[C@@H]6CC[C@@]5(C)[C@@H](OC(C)=O)[C@H](OC(C)=O)C(=C3C)C4(C)C)[C@H](c3ccccc3)N2C(=O)c2ccccc2)cc1` (stereo partly drawn), the Ratio with A549 amounted to 6.9; in the assay on MCF7, 9.3; in the assay on SK-OV-3 it was 10.2.
Taken in the same sequence, the figures for `CC(=O)O[C@H]1C(=O)[C@@]2(C)[C@H]([C@H](OC(=O)c3ccccc3)[C@]3(O)C[C@H](OC(=O)[C@H](O)[C@@H](NC(=O)c4ccccc4)c4ccccc4)C(C)=C1C3(C)C)[C@]1(OC(C)=O)CO[C@@H]1C[C@@H]2O` [PACLITAXEL] were 1, 1 and 1.

(Values after ChEMBL document CHEMBL1136825, “Synthesis and biological evaluation of 4-deacetoxy-1,7-dideoxy azetidine paclitaxel analogues” (2003).)
